The assay deals with CRC cell lines. In words: Drug response in cell lines (CellTiter-Glo proliferation, 72 h). Particulars: PHA-665752 125 nM, relative to vehicle-treated cells (FIG. 3E). The assay is classed as cell-based, human. How it is done:
Colon cancer cell lines were grown in DMEM (Gibco, USA) plus 10% FBS (Invitrogen, USA) without antibiotics/antimycotics. All the cell lines were confirmed to be negative for mycoplamsa by PCR (VenorGeM kit, Sigma, USA) prior to use and were tested monthly.
Proliferation was monitored using CellTiter-Glo® assay kit according to the manufacturer's instruction (Promega, Dubendorf, Switzerland) on day 3 (72 h).
In general terms: Cellular ATP, detected with luciferase, serves as a proxy for viable cell number.

As for `Cc1[nH]c(/C=C2\C(=O)Nc3ccc(S(=O)(=O)Cc4c(Cl)cccc4Cl)cc32)c(C)c1C(=O)N1CCC[C@@H]1CN1CCCC1` [cMet inhibitor, PHA-665752], the “sensitivity to cMet inhibition, CR-TA versus CS-TA cell lines” value is recorded as “CR-TA cell lines were much more sensitive to cMet inhibition than CS-TA cell lines”.

The values are drawn from patent publication US20150354009A1, “COLORECTAL CANCER CLASSIFICATION WITH DIFFERENTIAL PROGNOSIS AND PERSONALIZED THERAPEUTIC RESPONSES” (ECOLE POLYTECHNIQUE FEDERALE DE LAUSANNE (EPFL), priority 2012, published 2015).
